Test results: US20260325538A1, “THERAPY” (priority 2023, published 2026)

Columns and labels:
[1] = system: Klebsiella pneumoniae ST147 (NDM-1 and KPC-2); experiment: Checkerboard MIC, fixed ratio of sBLI to antibiotic (Examples 7-10); format: cell-based; conditions: caMHB 29.4 μM Zn2+
Description: The antibiotics and serine β-lactamase-inhibitors (sBLIs) were purchased from the following suppliers: Ceftazidime (CAZ): Sigma-Aldrich; Cefepime (FEP): Sigma-Aldrich; Cefpodoxime (CEFP): MedChemExpress; Sulbactam (SUL): Sigma-Aldrich Avibactam (AVI): Biosynth; Vaborbactam (VAB): ABCR; Tazobactam (TAZ): Sigma-Aldrich; Taniborbactam (TAN): Sigma-Aldrich.
In each of Examples 3-23, the compound of Example 26 of WO 2018/033719 was employed as the zinc chelator. The following abbreviations are used in these examples: sBLI means serine-β-lactamase inhibitor; CFU means colony-forming unit, which is a group of microbes that grows from a single cell on a petri plate; DMSO means dimethyl sulfoxide; MHB means Mueller-Hinton broth; caMHB means cation-adjusted Mueller-Hinton broth; MIC means minimum inhibitory concentration—the lower the MIC, the more efficient the combination against the respective bacterial strain.
General Protocol Used in Examples 3-10 Employing a Fixed Ratio of sBLI to Antibiotic within Each Experiment:
(§1) Antimicrobial susceptibility testing (AST) by broth microdilution (MIC determination) was performed according to The European Committee on Antimicrobial Susceptibility Testing (EUCAST) guidelines (see Reading guide for broth microdilution Version 5.0, 2024: https://www.eucast.org).
Sterile clear round bottom polystyrene (non-treated) 96-well microplates (Corning 3788) were used for making serial two-fold dilutions of the antibiotic and the serine sBLI in cation-adjusted Mueller Hinton II broth (caMHB; Thermo Scientific, T3462, containing 29.4 μM Zn^2+), across the columns of the microtiter plate ([…]; columns 1-12). The checkerboard plates were all made by keeping the sBLI at a fixed ratio relative to antibiotic (absolute concentrations of each, in μg/mL) to all wells containing sample in each plate. Additionally, a set of samples were included in each test plate, where the zinc chelator was added, at various fixed concentrations, of 16 μg/mL, 8 μg/mL and/or 4 μg/mL (as specified in each Example). All sample wells contained growth medium (caMHB), and inoculated bacteria at a final inoculum between 3-7×10^5 CFU/mL. […] Synergy for the triple combination (antibiotic, sBLI, and zinc chelator) was defined as when the MIC in rows containing the zinc chelator in combination with antibiotic and sBLI (triple combination), was lower than for rows containing antibiotic and sBLI (double combination; no zinc chelator).
(§2) Two technical replicates were performed for each sample. An X in rows 1-8 in the table indicates bacterial growth, while a blank cell indicates no growth. Concentrations (μg/mL) of CAZ are given in row 0a). Concentrations (μg/mL) of AVI are given in row 0b. The zinc chelator was added in fixed concentrations, at 16 μg/mL in rows 3 and 4, at 8 μg/mL in rows 5 and 6, and 4 μg/mL in rows 7 and 8. As a control, the effect of CAZ and AVI (no zinc chelator) was tested (rows 1 and 2). All wells contained bacterial growth medium (caMHB, 29.4 μM Zn^2+) and were inoculated with the test bacterium. The grey cells indicate the CAZ MIC.
as §2, with “FEP” for “CAZ”, “0a.” for “0a).”
Two technical replicates were performed for each sample. An X in rows 1-8 in the table indicates bacterial growth, while a blank cell indicates no growth. Concentrations (μg/mL) of FEP are given in row 0a. Concentrations (μg/mL) of SUL are given in row 0b. […]

[2] = system: bacteria which rely on SBLs; conditions: in combination with meropenem; cited from earlier work
[3] = system: various bacterial strains harbouring resistance enzymes; experiment: MIC determination, checkerboard assays (summary statements); format: cell-based; conditions: Examples 3-23
Description: Thus, in most of the experiments, a Fractional Inhibitory Concentration Index (FICI) could not be calculated, and the conclusion of synergy was made through visual reading of the bacterial growth in the wells in the combination experiment.
as §1
Sterile clear round bottom polystyrene (non-treated) 96-well microplates (Corning 3788) were used for making serial two-fold dilutions of the antibiotic and the serine sBLI in cation-adjusted Mueller Hinton II broth (caMHB; Thermo Scientific, T3462, containing 29.4 μM Zn^2+), across the columns of the microtiter plate (256-0.06 μg/mL; columns 1-12). The checkerboard plates were all made by keeping the sBLI at a fixed ratio relative to antibiotic (absolute concentrations of each, in μg/mL) to all wells containing sample in each plate. Additionally, a set of samples were included in each test plate, where the zinc chelator was added, at various fixed concentrations, of 16 μg/mL, 8 μg/mL and/or 4 μg/mL (as specified in each Example). All sample wells contained growth medium (caMHB), and inoculated bacteria at a final inoculum between 3-7×10^5 CFU/mL. […]

[4] = system: certain strains of Pseudomonas aeruginosa; conditions: in combination with meropenem; cited from earlier work

**Q.** With CN(C[C@H](O)[C@@H](O)[C@H](O)[C@H](O)CO)C(=O)c1ccc(CN(Cc2ccccn2)Cc2ccccn2)nc1 [zinc chelator] as the molecule, how does the “synergy with the zinc chelator” value ([1]; zinc chelator 4 μg/mL, with FEP and TAZ (fixed ratio)) read?
**A.** Synergy

**Q.** What about the “synergy with the zinc chelator” value ([1]; zinc chelator 8 μg/mL, with CAZ and AVI (fixed ratio)) of the same molecule?
**A.** Synergy

**Q.** What about the “synergy with the zinc chelator” value ([1]; zinc chelator 8 μg/mL, with FEP and AVI (fixed ratio)) of the same molecule?
**A.** Synergy

**Q.** And the “synergy with the zinc chelator” value ([1]; zinc chelator 8 μg/mL, with FEP and SUL (fixed ratio))?
**A.** Synergy

**Q.** And the “synergy with the zinc chelator” value ([1]; zinc chelator 8 μg/mL, with FEP and TAZ (fixed ratio))?
**A.** Synergy

**Q.** And the “synergy with the zinc chelator” value ([1]; zinc chelator 16 μg/mL, with CAZ and AVI (fixed ratio))?
**A.** Synergy

**Q.** And the “synergy with the zinc chelator” value ([1]; zinc chelator 16 μg/mL, with FEP and AVI (fixed ratio))?
**A.** Synergy

**Q.** And the “synergy with the zinc chelator” value ([1]; zinc chelator 16 μg/mL, with FEP and SUL (fixed ratio))?
**A.** Synergy

**Q.** What about the “synergy with the zinc chelator” value ([1]; zinc chelator 16 μg/mL, with FEP and TAZ (fixed ratio)) of the same molecule?
**A.** Synergy

**Q.** And the “effect of combination with meropenem” value [2]?
**A.** no effect

**Q.** What about the intrinsic antibiotic effect [3] of the same molecule?
**A.** neither the zinc chelator nor the sBLI have intrinsic antibiotic effect

**Q.** What about the “effect of combination with meropenem” value [4] of the same molecule?
**A.** poor effect
